Experiments:
A549 = test: Cytotoxicity against human A549 cells harboring wild type EGFR assessed as reduction in cell viability after 72 hrs by MTT assay; assay type: functional, cell-based; settings: A549, 72 h
NCI-H1975 = test: Cytotoxicity against human NCI-H1975 cells harboring T790M/L858R mutant assessed as reduction in cell viability after 72 hrs by MTT assay; assay type: functional, cell-based; settings: NCI-H1975, 72 h
[1] = target: Epidermal growth factor receptor (Homo sapiens, UniProt P00533)
Description: Inhibition of recombinant wild type EGFR (696 to C terminal end) (unknown origin) using poly (Glu-Tyr) as substrate preincubated for 30 mins followed by substrate addition and measured after 30 mins by ELISA

[2] = target: Epidermal growth factor receptor (Homo sapiens, UniProt P00533, L858R/T790M)
Sequence of Epidermal growth factor receptor (Homo sapiens, UniProt P00533, L858R/T790M) (P00533 25-1210 T790M/L858R limits assumed): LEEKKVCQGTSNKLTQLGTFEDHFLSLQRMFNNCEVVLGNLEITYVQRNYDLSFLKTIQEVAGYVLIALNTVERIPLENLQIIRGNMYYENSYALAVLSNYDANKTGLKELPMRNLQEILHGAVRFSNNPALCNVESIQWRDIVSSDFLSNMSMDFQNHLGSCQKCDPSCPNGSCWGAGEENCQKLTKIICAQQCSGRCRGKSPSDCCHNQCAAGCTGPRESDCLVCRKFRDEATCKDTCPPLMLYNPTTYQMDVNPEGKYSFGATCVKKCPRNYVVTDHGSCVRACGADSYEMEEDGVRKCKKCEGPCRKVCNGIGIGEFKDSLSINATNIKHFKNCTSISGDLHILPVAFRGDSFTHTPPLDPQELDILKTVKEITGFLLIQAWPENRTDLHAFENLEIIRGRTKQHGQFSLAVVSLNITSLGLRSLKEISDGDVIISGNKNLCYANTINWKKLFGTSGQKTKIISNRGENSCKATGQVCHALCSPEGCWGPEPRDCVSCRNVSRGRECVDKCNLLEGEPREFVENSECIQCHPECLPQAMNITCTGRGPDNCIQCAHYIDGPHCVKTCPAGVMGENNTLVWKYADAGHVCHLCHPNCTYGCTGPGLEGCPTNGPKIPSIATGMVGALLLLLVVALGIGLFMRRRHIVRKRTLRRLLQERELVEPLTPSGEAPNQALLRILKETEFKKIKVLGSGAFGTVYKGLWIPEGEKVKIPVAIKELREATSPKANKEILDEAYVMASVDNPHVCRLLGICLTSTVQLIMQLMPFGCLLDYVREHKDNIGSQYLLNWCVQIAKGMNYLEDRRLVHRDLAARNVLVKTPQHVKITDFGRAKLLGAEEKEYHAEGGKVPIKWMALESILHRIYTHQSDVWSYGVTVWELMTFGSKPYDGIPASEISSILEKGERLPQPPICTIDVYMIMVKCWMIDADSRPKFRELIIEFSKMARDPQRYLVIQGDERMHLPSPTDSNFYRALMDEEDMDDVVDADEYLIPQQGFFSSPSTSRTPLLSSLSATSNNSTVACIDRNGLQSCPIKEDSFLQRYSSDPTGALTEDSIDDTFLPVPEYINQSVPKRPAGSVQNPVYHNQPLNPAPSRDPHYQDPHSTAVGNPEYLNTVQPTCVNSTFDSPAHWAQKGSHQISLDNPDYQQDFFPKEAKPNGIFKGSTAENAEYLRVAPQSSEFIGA

Sequence of Epidermal growth factor receptor (Homo sapiens, UniProt P00533) (P00533 whole entry): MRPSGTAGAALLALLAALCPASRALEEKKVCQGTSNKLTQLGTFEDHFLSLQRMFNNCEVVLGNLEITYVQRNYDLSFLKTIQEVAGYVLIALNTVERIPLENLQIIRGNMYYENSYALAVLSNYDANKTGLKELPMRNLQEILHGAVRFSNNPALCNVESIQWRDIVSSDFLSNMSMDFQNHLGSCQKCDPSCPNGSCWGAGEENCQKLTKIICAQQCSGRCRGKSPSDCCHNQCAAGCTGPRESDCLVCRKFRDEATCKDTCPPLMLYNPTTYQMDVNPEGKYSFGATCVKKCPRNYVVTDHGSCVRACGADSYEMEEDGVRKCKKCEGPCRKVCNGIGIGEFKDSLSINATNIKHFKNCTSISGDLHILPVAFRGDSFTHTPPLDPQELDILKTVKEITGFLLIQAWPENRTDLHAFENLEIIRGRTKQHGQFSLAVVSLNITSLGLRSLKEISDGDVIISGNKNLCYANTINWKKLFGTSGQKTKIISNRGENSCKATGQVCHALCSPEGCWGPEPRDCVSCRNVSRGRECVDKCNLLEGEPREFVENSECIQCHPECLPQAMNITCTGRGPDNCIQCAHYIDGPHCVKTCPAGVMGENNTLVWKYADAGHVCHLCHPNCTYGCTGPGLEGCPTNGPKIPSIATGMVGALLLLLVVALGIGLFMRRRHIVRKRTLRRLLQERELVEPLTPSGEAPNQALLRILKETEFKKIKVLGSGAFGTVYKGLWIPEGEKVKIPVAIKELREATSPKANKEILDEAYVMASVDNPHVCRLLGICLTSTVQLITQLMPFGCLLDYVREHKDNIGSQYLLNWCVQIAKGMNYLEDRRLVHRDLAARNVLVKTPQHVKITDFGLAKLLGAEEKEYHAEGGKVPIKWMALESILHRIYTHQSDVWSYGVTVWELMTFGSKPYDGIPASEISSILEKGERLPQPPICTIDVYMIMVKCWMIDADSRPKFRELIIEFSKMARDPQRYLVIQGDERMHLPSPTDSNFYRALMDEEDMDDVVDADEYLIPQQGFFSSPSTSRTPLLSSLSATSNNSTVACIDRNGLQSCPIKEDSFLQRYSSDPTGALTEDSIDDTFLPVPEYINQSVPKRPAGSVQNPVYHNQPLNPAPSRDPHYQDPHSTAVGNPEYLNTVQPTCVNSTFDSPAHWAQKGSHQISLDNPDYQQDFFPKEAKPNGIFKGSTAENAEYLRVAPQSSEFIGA

IC50 [1] [nM] | IC50 [2] [nM] | SMILES | IC50 (A549) [nM] | IC50 (NCI-H1975) [nM]
 |  | COc1ccc(-c2c3c4cc(OC)c(O)cc4[nH]c(=O)c3n3ccc4cc(O)c(OC)cc4c23)cc1O | 15.5 | 1.9
23.6 | 16.6 | COc1ccc(-c2c3c4cc(OCCCN(C)C)c(O)cc4[nH]c(=O)c3n3ccc4cc(O)c(OC)cc4c23)cc1O |  | 
24.7 | 10.2 | COc1ccc(-c2c3c4cc(O)c(OCCCN(C)C)cc4[nH]c(=O)c3n3ccc4cc(O)c(OC)cc4c23)cc1O |  | 
4.6 | 1.7 | COc1ccc(-c2c3c4cc(OCCCN(C)C)c(OCCCN(C)C)cc4[nH]c(=O)c3n3ccc4cc(O)c(OC)cc4c23)cc1O | 2040 | 1360
259 | 65.3 | COc1ccc(-c2c3c4cc(OC)c(OC)cc4[nH]c(=O)c3n3ccc4cc(O)c(OC)cc4c23)cc1O |  | 

SMILES | IC50 [1] [nM] | IC50 [2] [nM] | IC50 (A549) [nM] | IC50 (NCI-H1975) [nM]
COc1ccc(-c2c3c4cc(OC)c(OCCCN(C)C)cc4[nH]c(=O)c3n3ccc4cc(O)c(OC)cc4c23)cc1O | 15.5 | 5.7 | 1040 | 350
